According to ChEMBL document CHEMBL4196205, “Dihydrochalcone Glucosides from the Subaerial Parts of Thonningia sanguinea and Their in Vitro PTP1B Inhibitory Activities” (J Nat Prod, 2018):

Assays:
[1] = molecular target: T1, Tyrosine-protein phosphatase non-receptor type 1 (Homo sapiens) (UniProt P18031); experiment: Inhibition of recombinant human PTP1B using pNPP as substrate assessed as residual activity at 30 uM after 30 mins by spectrometric method relative to control
T1 sequence (whole entry): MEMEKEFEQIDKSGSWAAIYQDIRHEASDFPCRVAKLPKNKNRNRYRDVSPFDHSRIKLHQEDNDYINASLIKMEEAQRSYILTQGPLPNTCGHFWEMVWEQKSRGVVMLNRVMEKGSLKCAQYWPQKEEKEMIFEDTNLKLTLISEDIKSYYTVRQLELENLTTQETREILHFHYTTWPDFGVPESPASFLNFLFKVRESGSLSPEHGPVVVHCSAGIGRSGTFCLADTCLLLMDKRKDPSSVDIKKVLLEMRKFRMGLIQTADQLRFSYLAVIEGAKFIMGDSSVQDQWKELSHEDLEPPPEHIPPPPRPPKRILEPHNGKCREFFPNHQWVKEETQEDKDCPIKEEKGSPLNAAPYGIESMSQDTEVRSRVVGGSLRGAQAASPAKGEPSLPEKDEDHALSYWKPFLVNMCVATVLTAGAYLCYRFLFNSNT

[2] = molecular target: T2, Tyrosine-protein phosphatase non-receptor type 1 (Homo sapiens, UniProt P18031); experiment: Inhibition of recombinant human PTP1B using pNPP as substrate assessed as residual activity after 30 mins by spectrometric method
T2 sequence (P18031 whole entry): T1 sequence (whole entry)

[3] = molecular target: T1, Tyrosine-protein phosphatase non-receptor type 1 (Homo sapiens); experiment: Inhibition of PTP1B in human HepG2 cells assessed as increase in insulin-stimulated IR tyrosine phosphorylation at Y1150/1151 residues preincubated for 30 mins followed by insulin addition measured after 5 mins by immuno blot method; format: cell-based
HepG2 [4] = experiment: Cytotoxicity against human HepG2 cells assessed as decrease in cell viability at > 30 uM after 24 hrs by resazurin dye based assay; settings: hepg2, 24 h
HepG2 [5] = experiment: Cytotoxicity against human HepG2 cells assessed as decrease in cell viability at > 30 uM after 24 hrs by crystal violet staining based assay; settings: hepg2, 24 h

| SMILES | Activity [1] [%] | IC50 [2] [µM] | further results |
| --- | --- | --- | --- |
| O=C(OC[C@H]1O[C@@H](Oc2cc(O)cc(O)c2C(=O)CCc2ccc(O)c(O)c2)[C@H](O)[C@@H](O)[C@@H]1O)c1cc(O)c(O)c(O)c1 | 91.7 | – | – |
| O=C(CCc1ccccc1)c1c(O)cc(O[C@@H]2O[C@H](CO)[C@@H](O)[C@H](O)[C@H]2O)cc1O | 97.7 | – | – |
| O=C(OC[C@H]1O[C@@H](Oc2cc(O)c(C(=O)CCc3ccccc3)c(O)c2)[C@H](O)[C@@H](O)[C@@H]1O)c1cc(O)c(O)c(O)c1 | 99.4 | – | – |
| O=C(CCc1ccc(O)c(O)c1)c1c(O)cc(O)cc1O[C@@H]1O[C@H](CO)[C@@H](O)[C@H](O)[C@H]1O | 102 | – | – |
| COc1cc([C@H]2OC[C@H]3[C@@H]2CO[C@@H]3c2ccc(O)c(OC)c2)ccc1O | 98.6 | – | – |
| COc1cc(/C=C/CO)ccc1O[C@@H]1O[C@H](CO)[C@@H](O)[C@H](O)[C@H]1O | 99.2 | – | – |
| COc1cc(C[C@H]2CO[C@H](c3ccc(O)c(OC)c3)[C@H]2CO)ccc1O | 86.1 | – | – |
| O=C1OC[C@H]2O[C@@H](Oc3cc(O)cc(O)c3C(=O)CCc3ccc(O)c(O)c3)[C@H](O)[C@@H](O)[C@@H]2OC(=O)c2cc(O)c(O)c(O)c2-c2c1cc(O)c(O)c2O | 84.4 | – | – |

Now from value to compound, other results behind:

| Activity [1] [%] | IC50 [2] [µM] | SMILES | further results |
| --- | --- | --- | --- |
| 30.9 | 23.8 | O=C1OC[C@H]2O[C@@H](Oc3cc(O)c(C(=O)CCc4ccc(O)cc4)c(O)c3)[C@H](O)[C@@H](O)[C@@H]2OC(=O)c2cc(O)c(O)c(O)c2-c2c1cc(O)c(O)c2O | – |
| 20.8 | 19.3 | O=C(O[C@@H]1[C@@H](O)[C@H](Oc2cc(O)cc(O)c2C(=O)CCc2ccc(O)cc2)O[C@@H]2COC(=O)c3cc(O)c(O)c(O)c3-c3c(cc(O)c(O)c3O)C(=O)O[C@@H]12)c1cc(O)c(O)c(O)c1 | – |
| 29.2 | 24.7 | O=C(O[C@@H]1[C@@H](O)[C@H](Oc2cc(O)cc(O)c2C(=O)CCc2ccc(O)c(O)c2)O[C@@H]2COC(=O)c3cc(O)c(O)c(O)c3-c3c(cc(O)c(O)c3O)C(=O)O[C@@H]12)c1cc(O)c(O)c(O)c1 | – |
| 1.9 | 4.4 | O=C(O[C@@H]1[C@@H](O)[C@H](Oc2cc(O)c(C(=O)CCc3ccccc3)c(O)c2)O[C@@H]2COC(=O)c3cc(O)c(O)c(O)c3-c3c(cc(O)c(O)c3O)C(=O)O[C@@H]12)c1cc(O)c(O)c(O)c1 [THONNINGIANIN A] | inhibition [3]: Dose-dependent effect; Activity (HepG2 [4]): Toxic; Activity (HepG2 [5]): Toxic |
| 28.5 | 21.7 | O=C1OC[C@H]2O[C@@H](Oc3cc(O)c(C(=O)CCc4ccccc4)c(O)c3)[C@H](O)[C@@H](O)[C@@H]2OC(=O)c2cc(O)c(O)c(O)c2-c2c1cc(O)c(O)c2O [THONNINGIANIN B] | – |
